According to patent US20150098905A1, “METHODS TO DETECT A FUNGAL CELL” (priority 2012, published 2015):
In brackets after ≈: the same amount, converted by molar mass. Numbered stars: 1 amine (or outer) side, 2 acyl side, 3 side chain; on linkers, the order of the positions; unused ones are H or OH. Bridge positions count the residues as written; N and C are the ends. Square brackets hold non-standard residues; d marks the D form. Peptide text beside a SMILES is read from it. * marks the point of attachment. hTyr(3S-OH,4S-OH,3'-OSO3H) = N[C@H](C(=O)O)[C@H](O)[C@@H](O)c1ccc(O)c(OS(=O)(=O)O)c1; pTerphenylCO(4''-OnC5H11) = CCCCCOc1ccc(-c2ccc(-c3ccc(C(=O)*)cc3)cc2)cc1; Orn(4R-OH,5R-OH) = O=C([C@H](C[C@@H](O)[C@@H](O)N[*:3])N[*:1])[*:2]; hTyr(3S-OH,4S-OH) = N[C@H](C(=O)O)[C@H](O)[C@@H](O)c1ccc(O)cc1; Pro(3S-OH,4S-Me) = C[C@H]1CN[C@H](C(=O)O)[C@H]1O; X1 = CCCCCOc1ccc(-c2cc(-c3ccc(C(=O)*)cc3)no2)cc1; Gln(3R-OH) = NC(=O)C[C@@H](O)[C@H](N)C(=O)O; Hyp = O=C(O)[C@@H]1C[C@@H](O)CN1

How the values were obtained:
[1] = tested on: C. albicans and A. fumigatus cells; assay: Pretreatment with unlabeled antifungal drug followed by probe labeling; format: cell-based, Candida albicans, Aspergillus fumigatus; settings: for effect of pretreatment on CSF-BOD labeling: pretreatment C. albicans 1 h, A. fumigatus 2 h, azoles at one dilution below the MIC, then CSF-BOD; for effect of pretreatment on labeling of cells by POS-BOD: pretreatment with unlabeled drug, then POS-BOD
Description: To illustrate the potential of CSF-BOD and POS-BOD for visualizing fungal cells, the reagent was used to probe for the presence of Candida and Aspergillus species in a variety of matrices including solid and liquid growth media. The clinical A. fumigatus wild type strain R21 and Candida albicans ATCC strain 90028 were used for all the experiments. For Aspergillus, one drop of yeast extract peptone dextrose (YPD) agar was placed in the upper right corner of each well of a 15-well multitest slide followed by the addition of 10 μl of saline containing 105 conidia of R21. The slide was placed in a sterile petri dish with distilled water to provide a moist environment and incubated in a 37° C. incubator for 10-16 hours to facilitate germination and growth of hyphal elements. A 10 μl aliquot of CSF-BOD (170 ng/ml) or POS-BOD (150 ng/ml) was added to each well and incubated for 6 h at 37° C., followed by washing 3 times with sterile water and drying by vacuum. For Candida, an overnight culture of C. albicans was grown, washed by centrifugation and resuspended in dH2O. The yeast cells were added to RPMI and incubated at 200 rpm for 1 h at 37° C. to form germ tubes before being washed and resuspended in a 1 ml solution of CSF-BOD (120 ng/mil) or POS-BOD (150 ng/ml). The cells with drug were incubated again at 200 rpm for 1 h at 37° C., washed and resuspended in 50 ml of dH2O. A 15 well slide was prepared using a poly-L-lysine to tightly adhere cells to the wells. A 10 μL aliquot of Candida cells was placed on each well and incubated for 10 minutes, aspirated off, and 1 μL Slow Fade Antifade reagent was added to prolong the fluorescent life and moisture level of the cells on the each slide. Each slide was observed under 100× magnification with the total internal reflection objective lens (TIRF) of a Nikon Eclipse 90i fluorescent microscope. The 15 wells of the slides were examined individually using Volocity 3D Image Analysis Software (PerkinElmer). Individual cells, hyphal elements and clusters of cells were visualized, analyzed, and captured in bright field lighting and repeated under a Green Fluorescent Protein (GFP) light setting.

[2] = tested on: A. fumigatus wild type strain R21; assay: Cell labeling with fluorescent probe, fluorescence microscopy; format: cell-based, Aspergillus fumigatus; settings: control, species not given
Description: To illustrate the potential of CSF-BOD and POS-BOD for visualizing fungal cells, the reagent was used to probe for the presence of Candida and Aspergillus species in a variety of matrices including solid and liquid growth media. The clinical A. fumigatus wild type strain R21 and Candida albicans ATCC strain 90028 were used for all the experiments. For Aspergillus, one drop of yeast extract peptone dextrose (YPD) agar was placed in the upper right corner of each well of a 15-well multitest slide followed by the addition of 10 μl of saline containing 105 conidia of R21. The slide was placed in a sterile petri dish with distilled water to provide a moist environment and incubated in a 37° C. incubator for 10-16 hours to facilitate germination and growth of hyphal elements. A 10 μl aliquot of CSF-BOD (170 ng/ml) or POS-BOD (150 ng/ml) was added to each well and incubated for 6 h at 37° C., followed by washing 3 times with sterile water and drying by vacuum. For Candida, an overnight culture of C. albicans was grown, washed by centrifugation and resuspended in dH2O. […] Individual cells, hyphal elements and clusters of cells were visualized, analyzed, and captured in bright field lighting and repeated under a Green Fluorescent Protein (GFP) light setting.

[3] = tested on: C. albicans; assay: Antifungal activity (MIC) of labeled and unlabeled caspofungin; format: cell-based; settings: Candida albicans
Method: A derivative of CSF using BODIPY (BOD), an analog that resembles fluorescein but is smaller and more hydrophobic, was produced to test the CSF-BOD with various fungal pathogens. BODIPY-succinimidate was incubated with pure CSF in the presence of triethylamine as proton acceptor in DMF. The crude product was purified by TLC silica gel chromatography and characterized using mass spectroscopy, fluorescence and UV spectroscopy. The modified agent retained its specificity and sensitivity to the fungal target. […] BODIPY coupled to posaconazole (POS) was formed by modifying a single hydroxyl group of posaconazole with succinic anhydride (FIG. 6).

Compound	effect of pretreatment on CSF-BOD labeling [1]	effect of pretreatment on labeling of cells by POS-BOD [1]	labeling by unconjugated drug or dye alone [2]	MIC [3] [µg/mL]
C[C@@H](c1ncncc1F)[C@](O)(Cn1cncn1)c1ccc(F)cc1F [voriconazole]	no effect	greatly diminished or eliminated the fluorescence signal	–	–
CCCCCOc1ccc(-c2cc(-c3ccc(C(=O)N[C@H]4C[C@@H](O)[C@@H](O)NC(=O)[C@@H]5[C@@H](O)[C@@H](C)CN5C(=O)[C@H]([C@H](O)CC(N)=O)NC(=O)[C@H]([C@H](O)[C@@H](O)c5ccc(O)c(OS(=O)(=O)O)c5)NC(=O)[C@@H]5C[C@@H](O)CN5C(=O)[C@H]([C@@H](C)O)NC4=O)cc3)no2)cc1 [micafungin] (X1-[Orn(4R-OH,5R-OH)]T[Hyp][hTyr(3S-OH,4S-OH,3'-OSO3H)][Gln(3R-OH)][Pro(3S-OH,4S-Me)]; lactam 1-C)	eliminated the labeling	–	–	–
CC[C@@H]([C@H](C)O)n1ncn(-c2ccc(N3CCN(c4ccc(OC[C@@H]5CO[C@@](Cn6cncn6)(c6ccc(F)cc6F)C5)cc4)CC3)cc2)c1=O [posaconazole]	no effect	greatly diminished or eliminated the fluorescence signal	–	–
OC(Cn1cncn1)(Cn1cncn1)c1ccc(F)cc1F [fluconazole]	no effect	–	–	–
CCC(C)n1ncn(-c2ccc(N3CCN(c4ccc(OCC5COC(Cn6cncn6)(c6ccc(Cl)cc6Cl)O5)cc4)CC3)cc2)c1=O (stereo not shown) [itraconazole]	no effect	–	–	–
boron-dipyrromethene [BODIPY]	–	–	failed to produce any labeling	–
CC[C@H](C)C[C@H](C)CCCCCCCCC(=O)N[C@H]1C[C@@H](O)[C@@H](NCCN)NC(=O)[C@@H]2[C@@H](O)CCN2C(=O)[C@H]([C@H](O)CCN)NC(=O)[C@H]([C@H](O)[C@@H](O)c2ccc(O)cc2)NC(=O)[C@@H]2C[C@@H](O)CN2C(=O)[C@H]([C@@H](C)O)NC1=O [caspofungin]	intensified the fluorescence	little effect	failed to produce any labeling	0.06 (≈ 0.0549 µM)
CCCCCOc1ccc(-c2ccc(-c3ccc(C(=O)N[C@H]4C[C@@H](O)[C@@H](O)NC(=O)[C@@H]5[C@@H](O)[C@@H](C)CN5C(=O)[C@H]([C@@H](C)O)NC(=O)[C@H]([C@H](O)[C@@H](O)c5ccc(O)cc5)NC(=O)[C@@H]5C[C@@H](O)CN5C(=O)[C@H]([C@@H](C)O)NC4=O)cc3)cc2)cc1 [anidulafungin] ({pTerphenylCO(4''-OnC5H11)}-[Orn(4R-OH,5R-OH)]T[Hyp][hTyr(3S-OH,4S-OH)]T[Pro(3S-OH,4S-Me)]; lactam 1-C)	eliminated the labeling	–	–	–
